Assay [1] addresses Sphingosine 1-phosphate receptor 3 (Homo sapiens, UniProt Q99500). Put plainly: Dose response cell-based high throughput screening assay for antagonists of the Sphingosine 1-Phosphate Receptor 3 (S1P3). [Related pubchem assays: 1429, 485 ]. The format is functional.
For assay [2], the target named is Beta Lactamase (Pseudomonas aeruginosa, UniProt Q932Y6). The assay is described as follows: beta-lactamase reporter inhibitor potency, dose response, artefact control for TLR9-MyD88 binding inhibitor project, BLA reporter cells, FRET fluorescence (AID 588341).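 Also: cell based assay in CHO-K1 cells stably expressing beta-lactamase.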 The format is cell-based.
Sequence of Beta Lactamase (Q932Y6 whole entry, the tested form may be a part): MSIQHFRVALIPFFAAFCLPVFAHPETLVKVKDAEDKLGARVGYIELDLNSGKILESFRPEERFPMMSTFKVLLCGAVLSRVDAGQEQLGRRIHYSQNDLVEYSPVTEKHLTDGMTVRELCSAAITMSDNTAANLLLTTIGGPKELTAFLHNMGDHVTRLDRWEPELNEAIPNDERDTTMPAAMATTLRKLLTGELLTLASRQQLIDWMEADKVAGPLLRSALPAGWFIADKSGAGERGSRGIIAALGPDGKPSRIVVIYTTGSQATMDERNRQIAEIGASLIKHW
In assay [3] the test system is CHO. Put plainly: cytotoxicity in TLR9-MyD88 CHO cells, dose response, cytotoxicity control for TLR9-MyD88 binding inhibitor project, cell-based, luminescence (AID 588339).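 Also: CHO cells stably coexpressing TLR9 and MyD88 fusions from primary screen; compound exposure lasted 48 hours before viability readout.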 The format is functional, hamster. The note with it: Cricetulus griseus.
Assay [4] addresses 5-hydroxytryptamine receptor 1E (Homo sapiens, UniProt P28566). The assay is described as follows: Counterscreen assay for S1P3 antagonists: Dose response cell-based high throughput screening assay to identify antagonists of the 5-Hydroxytryptamine Receptor Subtype 1E (5HT1E). [Related pubchem assays: 1429, 485 ]. The format is functional.
In assay [5] the target is T1, Botulinum neurotoxin type F (Clostridium botulinum, UniProt P30996). Put plainly: High-throughput multiplex microsphere dose response for inhibitors of toxin protease, specifically Botulinum neurotoxin light chain F protease, compounds from Cherry Pick 01. The settings on record: read-out: EC50_MICROM. The format is functional.
T1 sequence (P30996 1-436 limits assumed): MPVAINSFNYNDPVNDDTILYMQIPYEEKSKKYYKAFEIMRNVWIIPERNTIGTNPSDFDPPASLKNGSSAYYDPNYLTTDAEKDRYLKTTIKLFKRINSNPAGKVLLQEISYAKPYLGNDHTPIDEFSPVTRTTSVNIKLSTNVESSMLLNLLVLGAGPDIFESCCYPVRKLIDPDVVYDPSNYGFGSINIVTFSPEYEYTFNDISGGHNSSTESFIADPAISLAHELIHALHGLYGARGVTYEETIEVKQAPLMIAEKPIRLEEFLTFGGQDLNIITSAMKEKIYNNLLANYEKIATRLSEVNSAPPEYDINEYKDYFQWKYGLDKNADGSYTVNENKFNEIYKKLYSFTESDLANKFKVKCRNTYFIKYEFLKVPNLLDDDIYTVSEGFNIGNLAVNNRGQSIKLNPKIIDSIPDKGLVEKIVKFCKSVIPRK
For assay [6], the target named is T2, Botulinum neurotoxin type A (Clostridium botulinum (strain Hall / ATCC 3502 / NCTC 13319 / Type A), UniProt P0DPI1). Put plainly: Confirmatory FRET assay using full length substrates for Botulinum neurotoxin light chain A protease, with Powder Set01. The format is functional.
T2 sequence (P0DPI1 2-448 limits assumed): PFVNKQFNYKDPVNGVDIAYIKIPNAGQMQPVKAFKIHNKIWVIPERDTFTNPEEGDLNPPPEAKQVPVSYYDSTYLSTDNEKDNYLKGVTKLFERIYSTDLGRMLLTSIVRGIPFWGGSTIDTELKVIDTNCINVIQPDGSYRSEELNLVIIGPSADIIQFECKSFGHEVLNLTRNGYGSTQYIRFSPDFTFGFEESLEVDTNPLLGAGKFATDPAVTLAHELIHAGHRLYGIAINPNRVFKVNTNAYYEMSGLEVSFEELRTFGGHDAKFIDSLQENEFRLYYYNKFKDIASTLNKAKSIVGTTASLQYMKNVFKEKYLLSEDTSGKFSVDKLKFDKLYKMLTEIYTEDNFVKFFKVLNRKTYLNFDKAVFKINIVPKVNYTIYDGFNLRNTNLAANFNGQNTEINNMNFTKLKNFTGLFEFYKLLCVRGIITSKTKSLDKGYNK
Assay [7] has as its target G-protein coupled receptor 55 (Homo sapiens, UniProt Q9Y2T6). Put plainly: GPR55 agonists via beta-arrestin recruitment, primary screen, imaging, U2OS cells, beta-arrestin-GFP redistribution (AID 1961). The format is functional.
Assay [8] deals with T2, Botulinum neurotoxin type A. Put plainly: High-throughput multiplex microsphere dose response for inhibitors of toxin protease, specifically Botulinum neurotoxin light chain A protease, compounds from Cherry Pick 01. The format is functional. The note with it: read-out: EC50_MICROM.
For assay [9] the target is unchanged. Put plainly: High-throughput multiplex microsphere dose response for inhibitors of toxin protease, specifically Botulinum neurotoxin light chain A protease, compounds from Powder Set 01. The format is functional, Clostridium botulinum A str. ATCC 3502. The settings on record: read-out: EC50_MICROM.
The target of assay [10] is T1, Botulinum neurotoxin type F. The assay is described as follows: High-throughput multiplex microsphere dose response for inhibitors of toxin protease, specifically Botulinum neurotoxin light chain F protease, compounds from Powder Set 01. The settings on record: read-out: EC50_MICROM. The format is functional, Clostridium botulinum Bf.
The target in assay [11] is T3, Protein RecA (Mycobacterium tuberculosis, UniProt P9WHJ3).
T3 sequence (P9WHJ3 whole entry): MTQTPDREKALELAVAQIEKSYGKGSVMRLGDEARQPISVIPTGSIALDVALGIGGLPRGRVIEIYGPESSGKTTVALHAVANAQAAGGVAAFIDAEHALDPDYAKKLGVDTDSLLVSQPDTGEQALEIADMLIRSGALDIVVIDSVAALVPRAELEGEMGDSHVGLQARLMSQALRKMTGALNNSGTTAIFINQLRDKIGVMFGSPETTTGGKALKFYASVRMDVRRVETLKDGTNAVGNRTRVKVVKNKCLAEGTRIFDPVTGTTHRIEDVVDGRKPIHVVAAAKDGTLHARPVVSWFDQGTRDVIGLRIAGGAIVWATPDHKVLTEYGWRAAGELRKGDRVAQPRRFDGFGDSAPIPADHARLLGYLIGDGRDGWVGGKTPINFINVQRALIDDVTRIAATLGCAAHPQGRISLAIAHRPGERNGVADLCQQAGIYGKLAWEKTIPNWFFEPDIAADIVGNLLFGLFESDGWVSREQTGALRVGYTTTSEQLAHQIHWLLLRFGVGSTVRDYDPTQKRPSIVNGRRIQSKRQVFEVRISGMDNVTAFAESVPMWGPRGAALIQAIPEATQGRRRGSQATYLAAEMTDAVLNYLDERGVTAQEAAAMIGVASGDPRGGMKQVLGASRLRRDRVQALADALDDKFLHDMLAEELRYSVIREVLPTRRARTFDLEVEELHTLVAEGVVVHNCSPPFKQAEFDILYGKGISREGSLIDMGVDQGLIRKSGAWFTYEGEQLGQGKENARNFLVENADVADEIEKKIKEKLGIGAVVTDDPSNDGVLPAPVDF
Put plainly: Fluorescence Cell-Free Homogeneous Dose Retest to Identify Inhibitors of RecA-Intein Splicing Activity. [Related pubchem assays (depositor defined):AID2097, AID2223, AID489010, AID492950]. The format is functional.

Assay [12] deals with T4, Replicative DNA helicase DnaB (Mycobacterium tuberculosis, UniProt P9WMR3).
T4 sequence (P9WMR3 whole entry): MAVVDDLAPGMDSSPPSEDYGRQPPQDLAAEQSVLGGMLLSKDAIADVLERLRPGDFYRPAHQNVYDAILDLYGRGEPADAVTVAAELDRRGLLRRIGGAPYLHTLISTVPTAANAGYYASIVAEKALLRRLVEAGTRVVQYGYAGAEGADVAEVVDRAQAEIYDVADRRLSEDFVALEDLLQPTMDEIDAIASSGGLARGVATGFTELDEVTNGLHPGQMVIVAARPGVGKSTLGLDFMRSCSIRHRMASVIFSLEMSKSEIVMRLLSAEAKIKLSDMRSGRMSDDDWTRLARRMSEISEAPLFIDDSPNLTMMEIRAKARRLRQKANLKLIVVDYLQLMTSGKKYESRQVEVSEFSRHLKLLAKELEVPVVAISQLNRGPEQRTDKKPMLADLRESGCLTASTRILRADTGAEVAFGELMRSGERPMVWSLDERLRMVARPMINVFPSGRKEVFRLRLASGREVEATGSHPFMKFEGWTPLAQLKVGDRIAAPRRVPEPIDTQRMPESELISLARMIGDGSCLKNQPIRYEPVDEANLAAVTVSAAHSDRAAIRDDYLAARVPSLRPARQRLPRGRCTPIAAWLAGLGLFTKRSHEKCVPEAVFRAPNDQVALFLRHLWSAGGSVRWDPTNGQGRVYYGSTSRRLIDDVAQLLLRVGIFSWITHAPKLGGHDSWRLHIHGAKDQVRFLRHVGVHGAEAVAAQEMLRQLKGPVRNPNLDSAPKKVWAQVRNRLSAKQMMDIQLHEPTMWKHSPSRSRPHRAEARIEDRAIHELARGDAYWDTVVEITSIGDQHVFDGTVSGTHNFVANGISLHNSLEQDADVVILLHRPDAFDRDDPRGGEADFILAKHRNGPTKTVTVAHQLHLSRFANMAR
Put plainly: DnaB intein splicing inhibitors, dose response, biochemical, cell-free fluorescence (AID 449749). The format is functional.

Assay [13] is described as follows: nonselective inhibitors of cellular cAMP signaling, dose response, counter-screen for MC4R biased antagonist project, cell-based, TR-FRET cAMP detection (AID 602305).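 Also: U2OS cells stimulated with forskolin near its EC80 as the cAMP inducer; potency is for inhibition of forskolin-stimulated cAMP signaling.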 The format is functional. On the technique in general: A counterscreen serves to expose hits that act by an unwanted route or on another target.
Assay [14] deals with Melanocortin receptor 4 (Homo sapiens, UniProt P32245). Put plainly: MC4R antagonist potency on cAMP, dose response, cell-based, TR-FRET, biased antagonists (AID 602298).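 Also: antagonist potency against agonist-stimulated cAMP production.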 The format is functional. (In general: In TR-FRET formats the signal depends on donor and acceptor labels being close together.)
Sequence of Melanocortin receptor 4 (P32245 whole entry): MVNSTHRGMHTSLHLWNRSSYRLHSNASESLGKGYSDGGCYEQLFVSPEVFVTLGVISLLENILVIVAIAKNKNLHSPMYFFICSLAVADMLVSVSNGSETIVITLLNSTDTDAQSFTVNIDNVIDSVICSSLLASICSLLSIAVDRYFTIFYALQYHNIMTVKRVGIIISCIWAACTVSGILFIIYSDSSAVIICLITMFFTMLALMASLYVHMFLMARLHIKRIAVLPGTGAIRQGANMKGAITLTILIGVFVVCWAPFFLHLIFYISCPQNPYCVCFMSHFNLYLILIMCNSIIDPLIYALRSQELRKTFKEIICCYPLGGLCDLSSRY
Assay [15] addresses DNA dC->dU-editing enzyme APOBEC-3A (Homo sapiens, UniProt P31941). The assay is described as follows: SAR analysis of small molecule inhibitors of APOBEC3A DNA Deaminase via a fluorescence-based single-stranded DNA deaminase assay. The settings on record: read-out: IC50_Mean. The format is functional.
Assay [16] concerns the target DNA dC->dU-editing enzyme APOBEC-3G (Homo sapiens, UniProt Q9HC16). The assay is described as follows: APOBEC3G deaminase inhibitors, SAR follow-up, biochemical, fluorescence, single-stranded DNA substrate (AID 602136). The format is functional. The settings on record: read-out: IC50_Mean.

The source made the active and inactive calls. Bounds are passed on as bounds.

Our source for the IC50, EC50 and AC50 values is ChEMBL document CHEMBL1201862, “PubChem BioAssay data set” (2004).

The term AC50 denotes the concentration at which the activity in the assay is half-maximal.

Sequence of Sphingosine 1-phosphate receptor 3 (Q99500 whole entry): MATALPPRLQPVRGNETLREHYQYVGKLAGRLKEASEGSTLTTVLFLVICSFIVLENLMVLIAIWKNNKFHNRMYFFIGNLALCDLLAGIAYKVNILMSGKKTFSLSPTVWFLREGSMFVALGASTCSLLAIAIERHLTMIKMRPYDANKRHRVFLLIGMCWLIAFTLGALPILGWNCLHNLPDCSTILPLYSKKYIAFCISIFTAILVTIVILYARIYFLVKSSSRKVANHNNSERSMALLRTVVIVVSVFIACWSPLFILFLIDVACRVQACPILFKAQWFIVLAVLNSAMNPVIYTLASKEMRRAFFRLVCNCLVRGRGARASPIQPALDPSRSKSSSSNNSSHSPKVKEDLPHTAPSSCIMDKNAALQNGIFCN
Sequence of 5-hydroxytryptamine receptor 1E (P28566 whole entry): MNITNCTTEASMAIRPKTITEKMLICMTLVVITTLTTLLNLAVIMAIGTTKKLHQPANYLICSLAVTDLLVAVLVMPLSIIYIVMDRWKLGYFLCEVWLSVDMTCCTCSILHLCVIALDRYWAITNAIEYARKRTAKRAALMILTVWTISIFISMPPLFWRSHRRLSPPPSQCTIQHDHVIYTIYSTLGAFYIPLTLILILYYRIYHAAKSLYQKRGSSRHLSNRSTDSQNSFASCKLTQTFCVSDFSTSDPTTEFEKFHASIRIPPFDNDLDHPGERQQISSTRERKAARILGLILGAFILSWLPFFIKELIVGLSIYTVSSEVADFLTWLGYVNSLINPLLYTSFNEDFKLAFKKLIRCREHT
Sequence of G-protein coupled receptor 55 (Q9Y2T6 whole entry): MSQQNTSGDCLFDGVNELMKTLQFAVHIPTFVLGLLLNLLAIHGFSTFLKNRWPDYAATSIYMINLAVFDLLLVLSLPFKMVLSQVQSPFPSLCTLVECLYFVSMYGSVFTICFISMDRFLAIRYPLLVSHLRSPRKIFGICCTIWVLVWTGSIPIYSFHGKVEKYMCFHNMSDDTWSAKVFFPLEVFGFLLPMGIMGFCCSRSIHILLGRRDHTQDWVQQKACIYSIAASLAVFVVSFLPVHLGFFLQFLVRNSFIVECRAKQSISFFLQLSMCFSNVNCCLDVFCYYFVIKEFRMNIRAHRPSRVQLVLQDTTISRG
Sequence of DNA dC->dU-editing enzyme APOBEC-3G (Q9HC16 whole entry): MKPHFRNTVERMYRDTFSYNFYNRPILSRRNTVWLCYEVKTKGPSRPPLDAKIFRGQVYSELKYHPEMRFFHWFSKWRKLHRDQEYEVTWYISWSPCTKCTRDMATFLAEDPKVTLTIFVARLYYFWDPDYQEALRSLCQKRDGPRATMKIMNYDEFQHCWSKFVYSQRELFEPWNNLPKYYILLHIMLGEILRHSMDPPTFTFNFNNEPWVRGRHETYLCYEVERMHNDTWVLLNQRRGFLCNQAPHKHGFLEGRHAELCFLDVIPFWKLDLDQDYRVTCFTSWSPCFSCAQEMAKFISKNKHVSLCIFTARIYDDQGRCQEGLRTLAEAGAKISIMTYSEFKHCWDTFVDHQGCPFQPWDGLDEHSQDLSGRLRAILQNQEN
Sequence of DNA dC->dU-editing enzyme APOBEC-3A (P31941 whole entry): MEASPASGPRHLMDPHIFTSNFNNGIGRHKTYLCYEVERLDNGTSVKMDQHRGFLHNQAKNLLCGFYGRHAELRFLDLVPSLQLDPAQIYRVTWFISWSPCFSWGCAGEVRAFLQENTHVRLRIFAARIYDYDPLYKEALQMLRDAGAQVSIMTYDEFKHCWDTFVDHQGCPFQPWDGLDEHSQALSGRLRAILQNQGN

Consider `O=[N+]([O-])c1ccc(C2=NN(c3ccccc3)C(c3ccco3)C2)cc1` (stereo unspecified), for which the IC50 in [1] is 3.78 µM (active); in assay [2], 2.64 µM (active); in assay [3] it was > 49.7 µM (inactive); in assay [4] it was 2.49 µM (active). Besides, the EC50 was 1.5 µM (active) in [5]; 3.1 µM (active) in [6]; < 500 nM (active) in assay [7]; 2.6 µM (active) in assay [8]; 400 nM (active) in assay [9]; 500 nM (active) in assay [10].
With `CS(=O)(=O)c1nc([N+](=O)[O-])nn1CCCc1ccccc1`, the EC50 in [11] was 14.5 µM (active). Also, in assay [12], the half-maximal activity concentration (AC50) is 7.7 µM (active). The IC50 in [13] is > 64.5 µM (inactive); in [14], > 64.5 µM (inactive); in [15], > 99 µM (inactive); in assay [16], > 99 µM (inactive).
